Measurements from article PMC3070195 (Bioconjugate chemistry, 2010).

Tests used:
[1] = Cytotoxicity in CEM cells; assay type: cell-based; settings: human, CEM (CEM-CCRF) T-lymphoblastoid cells
[2] = Cytotoxicity in Vero cells; assay type: cell-based, African green monkey; settings: African green monkey, Vero (kidney) cells
[3] = Cytotoxicity in uninfected PHA-stimulated PBM cells; assay type: cell-based, human; settings: human, uninfected PHA-stimulated PBM cells
Vero cells = test: Cytotoxicity in Vero cells; assay type: cell-based, African green monkey; settings: 3 days, hemacytometer; for IC50: read-out: Cytotoxicity IC50 VERO cells
PBM cells = test: Cytotoxicity in uninfected PHA-stimulated PBM cells; assay type: cell-based, human; settings: 6 days, cell growth, trypan blue exclusion

NC(=O)c1ncn([C@@H]2O[C@H](CO)[C@@H](O)[C@H]2O)n1 [Virazole]
IC50 at 6 days [1]: 53 µM
IC50 at 3 days [2]: > 100 µM
IC50 at 6 days [3]: > 100 µM

O=c1[nH]c(=O)n([C@H]2C[C@H](OP(=O)(O)OC[C@H]3O[C@H](O)[C@H](O)[C@@H](O)[C@@H]3O)[C@@H](CO)O2)cc1I [10d, 2′-Deoxy-5-iodouridine 3′-(α/β-D-glucopyranos-6-yl) phosphate]
IC50 (Vero cells): > 100 µM

O=c1[nH]cnc2c1ncn2[C@H]1CC[C@@H](COP(=O)(O)OC[C@H]2OC(O)[C@H](O)[C@@H](O)[C@@H]2O)O1 (stereo partly drawn) [10e, 2′,3′-Dideoxyinosine 5′-(α/β-D-glucopyranos-6-yl) phosphate]
IC50 (Vero cells): > 100 µM

Cc1cn([C@H]2C[C@H](N=[N+]=[N-])[C@@H](CO)O2)c(=O)[nH]c1=O [AZT, zidovudine]
IC50 at 6 days [3]: > 100 µM

O=c1ccn([C@H]2C=C[C@@H](COP(=O)(O)OC[C@H]3OC(O)[C@H](O)[C@@H](O)[C@@H]3O)O2)c(=O)[nH]1 (stereo partly drawn) [10a, 2′,3′-Didehydro-2′,3′-dideoxyuridine 5′-(α/β-D-glucopyranos-6-yl) phosphate]
IC50 (Vero cells): > 100 µM

Nc1ncnc2c1ncn2[C@H]1CC[C@@H](COP(=O)(O)OC[C@H]2OC(O)[C@H](O)[C@@H](O)[C@@H]2O)O1 (stereo partly drawn) [10f, 2′,3′-Dideoxyadenosine 5′-(α/β-D-glucopyranos-6-yl) phosphate]
IC50 (Vero cells): 73.2 µM

NC(=O)c1ncn([C@@H]2O[C@H](COP(=O)(O)OC[C@H]3OC(O)[C@H](O)[C@@H](O)[C@@H]3O)[C@@H](O)[C@H]2O)n1 (stereo partly drawn) [10g, 1′-(3-Carbamoyl-1,2,4-triazoyl)-β-D-ribofuranose 5′-(α/β-D-glucopyranos-6-yl) phosphate]
IC50 (Vero cells): > 100 µM

Cc1cn([C@H]2C=CC(COP(=O)(O)OC[C@H]3O[C@H](O)[C@H](O)[C@@H](O)[C@@H]3O)O2)c(=O)[nH]c1=O (stereo partly drawn) [10b, 2′,3′-Didehydro-2′,3′-dideoxythymidine 5′-(α/β-D-glucopyranos-6-yl) phosphate]
Cytotoxicity IC50 VERO cells (Vero cells): no cytotoxicity
IC50 (Vero cells): > 100 µM
Cytotoxicity IC50 PBM cells (PBM cells): no cytotoxicity

Cc1cn([C@H]2C=C[C@@H](CO)O2)c(=O)[nH]c1=O [d4T]
IC50 (Vero cells): > 100 µM

Nc1ncnc2c1ncn2[C@@H]1O[C@H](CO)[C@@H](O)[C@@H]1O [Ara-A, ara-adenosine]
IC50 at 6 days [1]: 26.2 µM
IC50 at 3 days [2]: > 100 µM
IC50 at 6 days [3]: 26 µM

Nc1ccn([C@@H]2O[C@H](CO)[C@@H](O)[C@@H]2O)c(=O)n1 [Ara-C, Ara-cytidine]
IC50 at 6 days [1]: < 0.1 µM
IC50 at 6 days [3]: 57 µM

O=c1[nH]c(=O)n([C@H]2C[C@H](O)[C@@H](COP(=O)(O)OC[C@H]3OC(O)[C@H](O)[C@@H](O)[C@@H]3O)O2)cc1I (stereo partly drawn) [10c, 2′-Deoxy-5-iodouridine 5′-(α/β-D-glucopyranos-6-yl) phosphate]
IC50 (Vero cells): > 100 µM

Nc1ncnc2c1ncn2[C@H]1CC[C@@H](CO)O1 [ddA]
IC50 (Vero cells): > 100 µM

O=c1ccn([C@H]2C=C[C@@H](CO)O2)c(=O)[nH]1 [d4U]
IC50 (Vero cells): > 100 µM

O=c1[nH]cnc2c1ncn2[C@H]1CC[C@@H](CO)O1 [ddI]
IC50 (Vero cells): > 100 µM

Nc1ccn([C@@H]2O[C@H](COP(=O)(O)OC[C@H]3OC(O)[C@H](O)[C@@H](O)[C@@H]3O)[C@@H](O)[C@@H]2O)c(=O)n1 (stereo partly drawn) [10i, 1′-Cytosinyl-β-D-arabinofuranose 5′-(α/β-D-glucopyranos-6-yl) phosphate]
IC50 (Vero cells): < 1 µM

Nc1ncnc2c1ncn2[C@@H]1O[C@H](COP(=O)(O)OC[C@H]2OC(O)[C@H](O)[C@@H](O)[C@@H]2O)[C@@H](O)[C@@H]1O (stereo partly drawn) [10h, 1′-Adeninyl-β-D-arabinofuranose 5′-(α/β-D-glucopyranos-6-yl) phosphate]
IC50 (Vero cells): > 100 µM

O=c1[nH]c(=O)n([C@H]2C[C@H](O)[C@@H](CO)O2)cc1I [IdUrd]
IC50 (Vero cells): > 100 µM
